Results reported in PMC8548882, “The Trp-rich Antimicrobial Amphiphiles With Intramolecular Aromatic Interactions for the Treatment of Bacterial Infection” (Frontiers in Microbiology, 2021).
Ends that are not written are not given here.

How the values were obtained:
S.typhimurium 7731 = format: cell-based, Salmonella enterica serovar typhimurium C77-31
Text: (§1) The tested strains were kindly provided by the laboratory of Veterinary Microbiology and Immunology, the College of Veterinary Medicine, Northeast Agricultural University (gram-negative bacteria, Salmonella enterica serovar typhimurium C77-31, Salmonella typhimurium ATCC 14028, Escherichia coli ATCC 25922, Pseudomonas aeruginosa ATCC 27853 and gram-positive bacteria, Staphylococcus aureus ATCC 29213, Staphylococcus aureus ATCC 43300, Staphylococcus epidermidis ATCC 12228, Staphylococcus aureus ATCC 25923).

[1] = CD spectrum, secondary structure; format: physicochemical; settings: 150μM peptide
Protocol: The circular dichroism (CD) spectrum was further determined by analysis the secondary structure of peptides in different membrane-mimic environments ([Dong et al., 2014b]). The two totally different mimic environments were 10mM PBS and 50% TFE solution and the final concentration of peptides was fixed at 150μM Then the samples were transferred into a rectangular quartz cuvette (1mm path length) and further underwent the scanning of J-820 spectropolarimeter (Jasco, Tokyo, Japan) at the speed of 50nm/min. The wavelengths ranged from 190 to 250nm and were recorded to plot the observed ellipticity curve. The observed value at each time point was the average of three scans. The results were presented of mean residue ellipticity, which was calculated from the observed ellipticity as follows. θM=θobs⋅1000/(c⋅l⋅n); ([Zhu et al., 2014a])

[2] = test system: hRBC, IPEC-J2, HEK 293T, RAW264.7; settings: hRBC, IPEC-J2, HEK 293T, RAW264.7; listed as F5
Protocol: Besides, the therapeutic index of peptide in the mammalian eukaryotic cell (RAW 264.7, HEK 293T, and IPEC J2) was also calculated to study the biocompatibility of peptides.

IPEC-J2 cells = format: cell-based, porcine; settings: IPEC-J2; ratio of IC50 to GM
Protocol: (§2) The MTT (3-[4,5 dimethylthiozol-2-yl]-2,5-diphenylterazoliumbromide) dye was selected to analyze the cytotoxicity of peptides against the murine macrophage cell RAW 264.7 (National Collection of Authenticated Cell Cultures, Shanghai, China), human embryonic kidneys (HK293T), and the porcine intestinal epithelial cells (IPEC-J2) as in our previously study ([Li et al., 2020]). In short, the cells (10^4 cells/well) were seeded into 96-well plates and were cultivated overnight. Then the peptides with different final concentration (2μM, 4μM, 8μM, 16μM, 32μM, 64μM, and 128μM) were introduced into the plate and challenged with cells for 24h. After overnight incubation, the 50μl MTT (0.5mg/ml) was added into the cell cultures for 4h. Then the plate was centrifuged to discard the supernatants and obtain the formazan crystals. The DMSO (dimethyl sulfoxide) was employed as a solvent to dissolve the formazan crystals on the bottom of the plate and the optical density was read at 492nm with a microplate reader.

HEK 293T cells = format: cell-based, human; settings: ratio of IC50 to GM
Protocol: as §2

normal skin tissue = settings: mouse, in vivo, sc, 5 mg/kg
Protocol: The potential toxicity of peptides to normal skin tissues was further tested by TUNEL assay ([Huang et al., 2009]). […] The 100μl 100% DMSO treatment served as a positive control, which was well-known for its toxicity to induce skin necrosis. Then, the skin samples were harvested and were subjected to TUNEL assay and counterstain with 4,6-diamidino-2-phenylindole (DAPI).

RAW 264.7 cells = format: cell-based, murine; settings: RAW264.7; ratio of IC50 to GM
Protocol: as §2

[3] = test system: panel of gram-negative and gram-positive bacteria; settings: over the eight strains of Table 2
Protocol: (§3) The famous microtiter dilution, National Committee for Clinical Laboratory Standards, was adopted to measure the antimicrobial ability of the engineering peptides ([Chou et al., 2016]). In brief, the 50μl with serial dilution was incubated with the same volume bacteria (1×10^5CFU/ml in midi-logarithmic phase) in a 96-well plate 18–24h at 37°C. The positive control was the bacteria treated with culture medium and the negative control was merely culture medium. The MICs (minimum inhibitory concentrations) were defined as the lowest concentration of peptides that prevented the production of visible turbidity ([Tossi et al., 2000]).

S.typhimurium 14028 = format: cell-based, Salmonella typhimurium ATCC 14028
Text: as §1

P.aeruginosa 27853 = format: cell-based, Pseudomonas aeruginosa ATCC 27853; settings: 27853
Text: as §1, §3

S.aureus 29213 = format: cell-based, Staphylococcus aureus ATCC 29213; settings: 29213
Text: as §1, §3

[4] = test system: P. aeruginosa ATCC 27853 cells; assay: Outer membrane permeabilization, NPN uptake; format: cell-based, Pseudomonas aeruginosa ATCC 27853
Protocol: The outer membrane permeabilization of peptides was observed by monitoring the fluorescence change of dye 1-N-phenylnaphthylamine (NPN; Dong et al., 2014c). The 10μm NPN (Sigma-Aldrich, Shanghai, China) was first incubated with the P. aeruginosa ATCC 27853 cells (OD600=0.2, suspended in 5mM HEPES buffer supplied with 5mM glucose) for 30min. Afterward, the mixture was subjected to the detection of fluorescence, which served as the background at the excitation wavelength (λ=350nm) and the emission wavelength (λ=420nm). Then the peptides with various concentrations (1μM, 2μM, 4μM, 8μM, 16μM, 32μM, and 64μM) were added into the mixture and the fluorescence was monitored until the value was tended to stable. The %NPN uptake against 10μg/ml polymyxin B was calculated to analyze the outer membrane permeability of peptides.

P. aeruginosa ATCC 27853 = assay: Time-kill curve; format: cell-based, Pseudomonas aeruginosa ATCC 27853; settings: 1×10^5CFU/ml, colony counting on MHA, mean of three assays
Protocol: The logarithmic phase bacterial cells (P. aeruginosa ATCC 27853 and S. aureus ATCC 29213) were harvested and diluted to 1×10^5CFU/ml ([Dou et al., 2017]). The testing peptides at different concentrations (1×MIC, 2×MIC, and 4×MIC) were challenged with bacteria at a series of time intervals (0, 5, 10, 30, 60, and 120min). Then the reaction system was diluted several times and plated on Mueller-Hinton agar (MHA, AoBoX, Shanghai, China) plates. The plates were incubated 24h at 37°C in order to count the bacterial colonies. The data were the means of three times independent assays.

E. coli 25922 = format: cell-based, Escherichia coli ATCC 25922
Text: as §1

Substance: VKKWVKKWVKKWVKKW-NH2 [VW5]
- MIC (S.typhimurium 7731): 1 µM
- secondary structure (CD) ([1]; 10mM sodium phosphate buffer): unordered conformation
- secondary structure (CD) ([1]; 50% TFE): α-helical tendency
- GMTI, geometric mean of TI of various cell lines [2]: > 1218.17
- Therapeutic index (TI) (IPEC-J2 cells): 3051.34
- Therapeutic index (TI) (HEK 293T cells): 5090.03
- apoptotic cells in epidermal layer (TUNEL) (normal skin tissue): no obvious green fluorescence
- Therapeutic index (TI) (RAW 264.7 cells): 1860.86
- GMMIC, geometric mean of the MICs [3]: 1.68 µM
- MIC (S.typhimurium 14028): 2 µM
- MIC (P.aeruginosa 27853): 1 µM
- MIC (S.aureus 29213): 2 µM
- %NPN uptake against 10μg/ml polymyxin B ([4]; peptide 1μM): 9.49%
- %NPN uptake against 10μg/ml polymyxin B ([4]; peptide 64μM): 102.91%
- time to complete eradication of bacterial cells (P. aeruginosa ATCC 27853; 2×MIC): 10 min
- time to complete eradication of bacterial cells (P. aeruginosa ATCC 27853; 4×MIC): 30 min
- MIC (E. coli 25922): 2 µM
